Activity calls are given as the source filed them. The calls are words filed in the database; no cut-off is given here.
Key:
Enterococcus faecalis = test: Antimicrobial activity against Enterococcus faecalis ATCC 29212 assessed as inhibition of microbial growth at <= 200 ug/ml incubated for 18 hrs by micro-broth dilution method; type: functional, organism-based; conditions: dose <= 200.0 µg/ml
Staphylococcus aureus [1] = test: Antimicrobial activity against Methicillin-resistant Staphylococcus aureus assessed as reduction in metabolic activity at < 200 ug/ml incubated for 1 to 4 hrs by CCK-8 assay; type: functional, organism-based; conditions: dose < 200.0 µg/ml, time 1-4 hrs
Escherichia coli [2] = test: Antibacterial activity against Escherichia coli ATCC 25922 infected in C57BL/6 mouse assessed as reduction in IL-1beta level in peritoneal fluid at 10 mg/kg,ip administrated 5 hrs after bacterial infection measured after 24 hrs by ELISA; type: functional, organism-based; conditions: time 19.0 hrs
Staphylococcus aureus [3] = test: Antibacterial activity against Methicillin-resistant Staphylococcus aureus infected in C57BL/6 mouse assessed as reduction in IL-1beta level in peritoneal fluid at 10 mg/kg,ip administrated 5 hrs after bacterial infection measured after 24 hrs by ELISA; type: functional, organism-based; conditions: time 19.0 hrs
Escherichia coli [4] = test: Antibacterial activity against Carbapenem-resistant Escherichia coli infected in C57BL/6 mouse assessed as reduction in TNF-alpha level in peritoneal fluid at 10 mg/kg,ip pre-administrated 5 hrs before bacterial infection measured after 24 hrs by ELISA; type: functional, organism-based; conditions: time 29.0 hrs
Escherichia coli [5] = test: Antibacterial activity against Carbapenem-resistant Escherichia coli infected in C57BL/6 mouse assessed as reduction in IL-1beta level in peritoneal fluid at 10 mg/kg,ip administrated 5 hrs after bacterial infection measured after 24 hrs by ELISA; type: functional, organism-based; conditions: time 19.0 hrs
Staphylococcus aureus [6] = test: Antibacterial activity against Methicillin-resistant Staphylococcus aureus infected in C57BL/6 mouse assessed as reduction in IL-6 level in serum at 10 mg/kg,ip pre-administrated 5 hrs before bacterial infection measured after 24 hrs by ELISA; type: functional, organism-based; conditions: time 29.0 hrs
Staphylococcus aureus [7] = test: Antibacterial activity against Methicillin-resistant Staphylococcus aureus infected in C57BL/6 mouse assessed as reduction in IL-6 level in serum at 10 mg/kg,ip administrated 5 hrs after bacterial infection measured after 24 hrs by ELISA; type: functional, organism-based; conditions: time 19.0 hrs
Escherichia coli [8] = test: Antibacterial activity against Carbapenem-resistant Escherichia coli infected in C57BL/6 mouse assessed as reduction in IL-6 level in serum at 10 mg/kg,ip pre-administrated 5 hrs before bacterial infection measured after 24 hrs by ELISA; type: functional, organism-based; conditions: time 29.0 hrs
Escherichia coli [9] = test: Antibacterial activity against Carbapenem-resistant Escherichia coli infected in C57BL/6 mouse assessed as reduction in IL-1beta level in serum at 10 mg/kg,ip administrated 5 hrs after bacterial infection measured after 24 hrs by ELISA; type: functional, organism-based; conditions: time 19.0 hrs
Staphylococcus aureus [10] = test: Antibacterial activity against Staphylococcus aureus ATCC 25923 infected in C57BL/6 mouse assessed as increase in survival rate at 10 mg/kg,ip pre-administrated 5 hrs before bacterial infection measured after 7 days; type: functional, organism-based; conditions: time 7.0 day
[11] = system: Peritoneal macrophage cell; test: Induction of chemotaxis in mouse Peritoneal macrophage assessed as increase in macrophage migration at 25 to 100 ug/ml incubated for 8 hrs by crystal violet staining based direct transwell assay; type: functional, cell-based; conditions: dose 25-100 µg/ml
Peritoneal macrophage [12] = test: Induction of chemotaxis in mouse Peritoneal macrophage assessed as upregulation of CXCL1 expression incubated for 6 hrs by ELISA; type: functional, cell-based
Peritoneal macrophage [13] = test: Induction of chemotaxis in mouse Peritoneal macrophage assessed as upregulation of TNF-alpha expression at 25 to 100 ug/ml incubated for 6 hrs by ELISA; type: functional, cell-based; conditions: dose 25-100 µg/ml
Peritoneal macrophage [14] = test: Immunomodulatory activity in mouse Peritoneal macrophage assessed as decrease in LPS-induced TNF-alpha production at 25 to 100 ug/ml incubated for 6 hrs by ELISA; type: functional, cell-based; conditions: dose 25-100 µg/ml
Peritoneal macrophage [15] = test: Immunomodulatory activity in mouse Peritoneal macrophage assessed as decrease in LTA-induced IL-6 production at 25 to 100 ug/ml incubated for 6 hrs by ELISA; type: functional, cell-based; conditions: dose 25-100 µg/ml
[16] = system: Peritoneal macrophage cell; test: Induction of phagocytosis in mouse Peritoneal macrophage assessed as increase in neutral red dye uptake by measuring optical density absorbance at 50 ug/ml incubated for 24 hrs followed by dye addition measured after 4 hrs by absorbance based assay (reference value: 0.089); type: functional; conditions: dose 50 µg/ml; time 28 hrs
[17] = system: Peritoneal macrophage cell; test: Induction of phagocytosis in mouse Peritoneal macrophage assessed as increase in neutral red dye uptake by measuring optical density absorbance at 100 ug/ml incubated for 24 hrs followed by dye addition measured after 4 hrs by absorbance based assay (reference value: 0.089); type: functional; conditions: dose 100 µg/ml; time 28 hrs
[18] = system: Peritoneal macrophage cell; test: Induction of ROS production in mouse Peritoneal macrophage incubated for 6 hrs by DCFA-DA staining based flow cytometry; type: functional, cell-based
Neutrophil [19] = test: Induction of ROS production in mouse bone marrow derived neutrophil at 25 to 100 ug/ml incubated for 6 hrs by DCFA-DA staining based flow cytometry; type: functional, cell-based; conditions: dose 25-100 µg/ml
Neutrophil [20] = test: Induction of chemotaxis in mouse bone marrow derived neutrophil assessed as increase in neutrophil migration at 100 ug/ml preincubated with KN62 for 30 mins followed by compound addition measured after 8 hrs by crystal violet staining based indirect transwell assay; type: functional, cell-based; conditions: dose 100.0 µg/ml
[21] = system: Peritoneal macrophage cell; test: Induction of chemotaxis in mouse Peritoneal macrophage assessed as upregulation of CXCL1 production at 100 ug/ml preincubated with MTS510 followed by compound addition by ELISA; type: functional, cell-based; conditions: dose 100.0 µg/ml
Peritoneal macrophage [22] = test: Immunoregulatory activity in mouse Peritoneal macrophage assessed as upregulation of JNK phosphorylation incubated for 1 hr by Western blotting analysis; type: functional, cell-based
Peritoneal macrophage [23] = test: Immunoregulatory activity in mouse Peritoneal macrophage assessed as upregulation of p65 phosphorylation incubated for 1 hr by Western blotting analysis; type: functional, cell-based
Peritoneal macrophage [24] = test: Immunoregulatory activity in mouse Peritoneal macrophage assessed as change in total ERK expression at 25 to 100 ug/ml incubated for 1 hr by Western blotting analysis; type: functional, cell-based; conditions: dose 25-100 µg/ml
Peritoneal macrophage [25] = test: Immunoregulatory activity in mouse Peritoneal macrophage assessed as change in total p65 expression at 25 to 100 ug/ml incubated for 1 hr by Western blotting analysis; type: functional, cell-based; conditions: dose 25-100 µg/ml
Mus musculus [26] = test: Antithrombotic activity in BALB/c mouse dorsal skin defect model assessed as increase in skin bleeding time at 10 mg/kg,SC administration; type: functional, organism-based
Mus musculus [27] = test: Anticoagulation activity in mouse assessed as change in plasma APC expression at 10 mg/kg,ip measured after 24 hrs by ELISA; type: functional, organism-based
Mus musculus [28] = test: Anticoagulation activity in mouse infected with Methicillin-resistant Staphylococcus aureus assessed as increase in plasma AT-III expression at 10 mg/kg,ip pre-administrated 5 hrs before bacterial infection measured after 24 hrs by ELISA; type: functional, organism-based; conditions: time 29.0 hrs
Mus musculus [29] = test: Anticoagulation activity in mouse infected with Carbapenem-resistant Escherichia coli assessed as increase in plasma APC expression at 10 mg/kg,ip pre-administrated 5 hrs before bacterial infection measured after 24 hrs by ELISA; type: functional, organism-based; conditions: time 29.0 hrs
Mus musculus [30] = test: Anticoagulation activity in mouse infected with Carbapenem-resistant Escherichia coli assessed as increase in plasma AT-III expression at 10 mg/kg,ip administrated 5 hrs after bacterial infection measured after 24 hrs by ELISA; type: functional, organism-based; conditions: time 19.0 hrs
Escherichia coli [31] = test: Antibacterial activity against Carbapenem-resistant Escherichia coli infected in C57BL/6 mouse with clodronate liposome-induced monocyte depletion model assessed as decrease in bacterial burden in peritoneal cavity at 10 mg/kg,ip pre-administrated 5 hrs before bacterial infection measured after 24 hrs; type: functional, organism-based; conditions: time 29.0 hrs

Q: What does the source list for `CC[C@H](C)[C@H](NC(=O)[C@@H]1CSSC[C@H](NC(=O)[C@H](CCC(=O)O)NC(=O)[C@@H](NC(=O)[C@H](CCCCN)NC(=O)[C@H](Cc2c[nH]cn2)NC(=O)[C@@H](NC(=O)[C@H](CCCCN)NC(=O)[C@H](CCC(=O)O)NC(=O)[C@H](C)NC(=O)[C@H](CCC(=O)O)NC(=O)[C@H](CCC(=O)O)NC(=O)[C@H](CCC(=O)O)NC(=O)[C@H](C)N)[C@@H](C)O)[C@@H](C)O)C(=O)N[C@@H](CC(C)C)C(=O)N[C@@H](CCC(=O)O)C(=O)N1)C(=O)N[C@@H](Cc1ccccc1)C(=O)N[C@H](C(=O)N[C@@H](CC(C)C)C(=O)N[C@@H](CC(C)C)C(=O)N1CCC[C@H]1C(=O)N1CCC[C@@H]1C(=O)N[C@H](C)C(=O)O)[C@@H](C)O`?
A: Activity (Enterococcus faecalis): inactive; Activity (Staphylococcus aureus [1]): inactive; Activity (Escherichia coli [2]): Active; Activity (Staphylococcus aureus [3]): Active; Activity (Escherichia coli [4]): Active; Activity (Escherichia coli [5]): Active; Activity (Staphylococcus aureus [6]): Active; Activity (Staphylococcus aureus [7]): Active; Activity (Escherichia coli [8]): Active; Activity (Escherichia coli [9]): Active; Activity (Staphylococcus aureus [10]): Active; Activity [11]: inactive; Activity (Peritoneal macrophage [12]): Dose-Dependent Effect; Activity (Peritoneal macrophage [13]): inactive; Activity (Peritoneal macrophage [14]): inactive; Activity (Peritoneal macrophage [15]): inactive; OD [16]: 0.102; OD [17]: 0.111; Activity [18]: Dose-Dependent Effect; Activity (Neutrophil [19]): inactive; Activity (Neutrophil [20]): Active; Activity [21]: Active; Activity (Peritoneal macrophage [22]): Dose-Dependent Effect; Activity (Peritoneal macrophage [23]): Dose-Dependent Effect; Activity (Peritoneal macrophage [24]): inactive; Activity (Peritoneal macrophage [25]): inactive; Activity (Mus musculus [26]): inactive; Activity (Mus musculus [27]): inactive; Activity (Mus musculus [28]): Active; Activity (Mus musculus [29]): Active; Activity (Mus musculus [30]): Active; Activity (Escherichia coli [31]): inactive

Source: ChEMBL document CHEMBL5543174, “A Nonbactericidal Anionic Antimicrobial Peptide Provides Prophylactic and Therapeutic Efficacies against Bacterial Infections in Mice by Immunomodulatory-Antithrombotic Duality” (J Med Chem, 2024)
